From ChEMBL document CHEMBL4043296 (J Med Chem, 2018)

Tests used:
[1] = Intrinsic clearance in mouse liver microsomes assessed per mg of protein at 0.5 uM preincubated for 30 mins followed by NADPH addition measured after 30 mins by HPLC-MS/MS method; assay type: ADME, microsome; conditions: read-out: CLH
[2] = Half life in mouse liver microsomes at 0.5 uM preincubated for 30 mins followed by NADPH addition measured over 30 mins by HPLC-MS/MS method; assay type: ADME, microsome
[3] = molecular target: T1, Muscarinic acetylcholine receptor M4 (Homo sapiens, UniProt P08173); experiment: Agonist activity at human SP/Myc epitope-tagged muscarinic M4 receptor expressed in HEK293T cells assessed as RLuc8-fused Galphaq activation after 2 mins by BRET assay; assay type: cell-based, HEK-293T
T1 sequence (P08173 whole entry): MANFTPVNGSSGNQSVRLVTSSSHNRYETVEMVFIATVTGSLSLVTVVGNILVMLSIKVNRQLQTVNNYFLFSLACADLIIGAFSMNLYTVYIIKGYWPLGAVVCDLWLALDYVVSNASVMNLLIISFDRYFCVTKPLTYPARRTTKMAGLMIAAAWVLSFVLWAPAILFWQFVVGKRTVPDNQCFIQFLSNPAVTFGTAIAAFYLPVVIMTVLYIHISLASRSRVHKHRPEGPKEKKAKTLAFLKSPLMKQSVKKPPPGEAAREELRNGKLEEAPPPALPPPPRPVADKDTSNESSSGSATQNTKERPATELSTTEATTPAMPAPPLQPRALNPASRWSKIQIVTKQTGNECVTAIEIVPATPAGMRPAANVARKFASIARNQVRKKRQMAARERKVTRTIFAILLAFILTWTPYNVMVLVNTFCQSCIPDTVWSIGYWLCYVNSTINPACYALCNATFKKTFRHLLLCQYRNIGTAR

[4] = Fraction unbound in human plasma at 0.5 uM by equilibrium dialysis method; assay type: ADME, cell-free
[5] = molecular target: T2, Muscarinic acetylcholine receptor M1 (Homo sapiens, UniProt P11229); experiment: (§1) Antagonist activity at human SP/Myc epitope-tagged muscarinic M1 receptor expressed in HEK293T cells assessed as inhibition of carbachol-induced mVenus-fused beta-arrestin2 recruitment preincubated for 15 mins followed by carbachol induction measured after 2 mins by BRET assay; assay type: cell-based, HEK-293T
T2 sequence (P11229 whole entry): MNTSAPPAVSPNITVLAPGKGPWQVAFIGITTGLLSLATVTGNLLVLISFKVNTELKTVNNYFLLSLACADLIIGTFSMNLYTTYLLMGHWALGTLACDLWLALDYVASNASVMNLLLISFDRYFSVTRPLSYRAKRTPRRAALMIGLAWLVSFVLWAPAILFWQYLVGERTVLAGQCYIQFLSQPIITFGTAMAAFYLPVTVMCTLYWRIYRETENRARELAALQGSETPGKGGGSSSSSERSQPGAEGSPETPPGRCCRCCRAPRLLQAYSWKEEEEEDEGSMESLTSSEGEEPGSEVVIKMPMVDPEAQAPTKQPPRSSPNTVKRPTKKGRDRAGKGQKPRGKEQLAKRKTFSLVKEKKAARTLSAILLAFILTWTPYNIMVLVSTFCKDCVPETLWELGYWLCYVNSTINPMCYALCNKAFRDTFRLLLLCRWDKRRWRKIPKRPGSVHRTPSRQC

[6] = molecular target: T3, Muscarinic acetylcholine receptor M1 (Homo sapiens) (UniProt P11229); experiment: as §1; assay type: cell-based; conditions: HEK-293T
T3 sequence (whole entry): T2 sequence (P11229 whole entry)

[7] = molecular target: T4, Muscarinic acetylcholine receptor M2 (Homo sapiens, UniProt P08172); experiment: Displacement of [3H]NMS from human muscarinic M2 receptor expressed in CHO cell membranes after 2 hrs by liquid scintillation counting method
T4 sequence (P08172 whole entry): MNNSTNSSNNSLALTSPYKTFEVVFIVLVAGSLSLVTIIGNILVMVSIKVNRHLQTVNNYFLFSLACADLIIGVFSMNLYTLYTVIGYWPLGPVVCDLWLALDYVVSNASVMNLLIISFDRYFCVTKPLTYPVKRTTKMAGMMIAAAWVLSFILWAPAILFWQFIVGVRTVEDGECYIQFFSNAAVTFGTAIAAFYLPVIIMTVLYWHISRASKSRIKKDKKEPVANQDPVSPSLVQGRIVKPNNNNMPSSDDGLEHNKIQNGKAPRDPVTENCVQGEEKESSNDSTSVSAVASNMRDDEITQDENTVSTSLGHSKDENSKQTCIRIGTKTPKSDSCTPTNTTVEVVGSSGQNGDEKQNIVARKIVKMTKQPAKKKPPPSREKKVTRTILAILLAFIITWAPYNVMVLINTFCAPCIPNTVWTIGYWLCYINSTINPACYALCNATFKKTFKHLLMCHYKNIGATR

[8] = molecular target: Sodium-dependent dopamine transporter (Rattus norvegicus, UniProt P23977); experiment: Displacement of [3H]WIN 35,428 from DAT in Sprague-Dawley rat striatum after 120 mins by scintillation counting method
Sequence of Sodium-dependent dopamine transporter (P23977 whole entry): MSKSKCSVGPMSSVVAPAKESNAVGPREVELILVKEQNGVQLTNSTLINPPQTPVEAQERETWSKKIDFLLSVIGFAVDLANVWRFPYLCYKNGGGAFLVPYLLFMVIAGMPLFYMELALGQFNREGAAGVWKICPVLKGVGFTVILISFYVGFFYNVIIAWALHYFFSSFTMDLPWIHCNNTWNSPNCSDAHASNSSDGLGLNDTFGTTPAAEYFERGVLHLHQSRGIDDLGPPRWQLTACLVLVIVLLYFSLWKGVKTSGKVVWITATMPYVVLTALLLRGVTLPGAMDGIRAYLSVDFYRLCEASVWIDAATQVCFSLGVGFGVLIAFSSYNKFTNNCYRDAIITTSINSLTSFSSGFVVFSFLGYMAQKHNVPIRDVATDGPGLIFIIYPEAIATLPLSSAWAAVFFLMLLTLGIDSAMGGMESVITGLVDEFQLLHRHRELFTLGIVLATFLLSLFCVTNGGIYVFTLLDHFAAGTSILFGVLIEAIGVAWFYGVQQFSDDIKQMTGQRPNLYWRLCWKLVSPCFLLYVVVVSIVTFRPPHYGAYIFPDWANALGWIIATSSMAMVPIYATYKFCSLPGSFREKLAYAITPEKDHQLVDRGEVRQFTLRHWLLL

D(3) dopamine receptor = D(3) dopamine receptor (Homo sapiens, UniProt P35462); experiment: Displacement of [3H]N-methylspiperone from human dopamine D3 receptor expressed in HEK293 cell membranes after 1 hr by scintillation counting method
Sequence of D(3) dopamine receptor (P35462 whole entry, the tested form may be a part): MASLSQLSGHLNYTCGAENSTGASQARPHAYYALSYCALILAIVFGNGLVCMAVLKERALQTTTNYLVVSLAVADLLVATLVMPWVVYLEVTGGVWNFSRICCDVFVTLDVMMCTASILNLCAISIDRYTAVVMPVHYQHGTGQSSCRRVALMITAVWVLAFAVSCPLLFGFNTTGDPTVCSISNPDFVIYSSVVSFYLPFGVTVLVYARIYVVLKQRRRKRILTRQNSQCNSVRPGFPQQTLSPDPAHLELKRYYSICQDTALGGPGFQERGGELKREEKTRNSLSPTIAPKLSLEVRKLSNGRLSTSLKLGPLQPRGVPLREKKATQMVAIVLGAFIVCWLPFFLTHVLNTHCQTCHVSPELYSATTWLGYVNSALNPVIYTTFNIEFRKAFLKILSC

D(4) dopamine receptor [9] = molecular target: T5, D(4) dopamine receptor (Homo sapiens, UniProt P21917); experiment: Antagonist activity at human SP/Myc epitope-tagged dopamine D4 receptor expressed in HEK293T cells assessed as inhibition of dopamine-induced mVenus-fused beta-arrestin2 recruitment preincubated for 15 mins followed by dopamine induction measured after 2 mins by BRET assay; assay type: cell-based, HEK-293T
T5 sequence (P21917 whole entry): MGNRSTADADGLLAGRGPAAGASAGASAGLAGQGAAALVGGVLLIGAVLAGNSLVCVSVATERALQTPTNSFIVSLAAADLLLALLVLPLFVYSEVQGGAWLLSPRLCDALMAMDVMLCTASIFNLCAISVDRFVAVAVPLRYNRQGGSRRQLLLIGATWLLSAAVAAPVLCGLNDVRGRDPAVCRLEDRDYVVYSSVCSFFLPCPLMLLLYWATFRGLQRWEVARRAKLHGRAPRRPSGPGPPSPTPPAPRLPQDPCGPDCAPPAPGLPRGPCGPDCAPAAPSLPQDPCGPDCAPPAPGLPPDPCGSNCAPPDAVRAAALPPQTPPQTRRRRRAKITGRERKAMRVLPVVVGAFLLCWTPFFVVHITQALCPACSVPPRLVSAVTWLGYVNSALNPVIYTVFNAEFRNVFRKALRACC

[10] = Fraction unbound in mouse brain at 5 uM by equilibrium dialysis method; assay type: ADME, tissue-based
[11] = molecular target: T1, Muscarinic acetylcholine receptor M4; experiment: Displacement of [3H]NMS from human muscarinic M4 receptor expressed in CHO cell membranes after 2 hrs by liquid scintillation counting method
D(4) dopamine receptor [12] = molecular target: T5, D(4) dopamine receptor; experiment: Antagonist activity at human SP/Myc epitope-tagged dopamine D4 receptor expressed in HEK293T cells assessed as inhibition of dopamine-induced RLuc8-fused Galphai1 activation preincubated for 15 mins followed by dopamine induction measured after 2 mins by BRET assay; assay type: cell-based, HEK-293T
[13] = molecular target: Beta-2 adrenergic receptor (Homo sapiens, UniProt P07550); experiment: Displacement of [3H]CGP12177 from human recombinant beta2 adrenergic receptor expressed in HEK293 cell membranes after 90 mins by beta counting method
Sequence of Beta-2 adrenergic receptor (P07550 whole entry): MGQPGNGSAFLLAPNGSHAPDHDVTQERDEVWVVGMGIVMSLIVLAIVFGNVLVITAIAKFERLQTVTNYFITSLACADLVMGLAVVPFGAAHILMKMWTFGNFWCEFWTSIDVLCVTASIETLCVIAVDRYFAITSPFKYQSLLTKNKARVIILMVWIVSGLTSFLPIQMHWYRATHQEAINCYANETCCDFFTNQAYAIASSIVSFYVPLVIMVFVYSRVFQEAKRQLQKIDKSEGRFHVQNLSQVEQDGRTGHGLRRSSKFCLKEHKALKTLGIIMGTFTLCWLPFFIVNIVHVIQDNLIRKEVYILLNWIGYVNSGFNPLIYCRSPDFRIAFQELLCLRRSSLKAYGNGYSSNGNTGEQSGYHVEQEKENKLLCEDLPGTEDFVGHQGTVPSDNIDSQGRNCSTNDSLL

MDR1 = experiment: Apparent passive permeability across basolateral to apical side in MDCK2 cells expressing MDR1 at 3 uM after 60 mins by mass spectroscopy; assay type: ADME, cell-based, Canis lupus familiaris, MDCK-II; conditions: dog, MDCK-MDR1

| SMILES | microsomal CLint at 0.5 µM [1] | half-life at 0.5 µM [2] | EC50 [3] | fraction unbound at 0.5 µM [4] | IC50 [5] | Imax [6] | Ki [7] | Ki [8] | Ki (D(3) dopamine receptor) | IC50 (D(4) dopamine receptor [9]) | fraction unbound at 5 µM [10] | Ki [11] | IC50 (D(4) dopamine receptor [12]) | Ki [13] | Papp B→A at 1 h, 3 µM (MDR1) |
| --- | --- | --- | --- | --- | --- | --- | --- | --- | --- | --- | --- | --- | --- | --- | --- |
| O=C1CCc2ccccc2N1CCCN1CCN(c2ccccc2)CC1 | 159 µL/min/mg | 8.71 min | 589 nM | 0.033 | 832 nM | 53% | 16600 nM | 8710 nM | 1320 nM | 0.724 nM | 0.086 | 9330 nM | 9.77 nM | 35500 nM | 19.7 ×10⁻⁶ cm/s |
| O=C1CCc2ccccc2N1CCCN1CCC(Cc2ccccc2)CC1 | 396 µL/min/mg | 3.5 min | 148 nM | 0.057 | 1200 nM | 71% | 794 nM | 447 nM | 1820 nM | 575 nM | 0.051 | 724 nM | 170 nM | 9550 nM | 20.9 ×10⁻⁶ cm/s |
